Source: EP0981626B1, “FUNGICIDAL TEST METHOD” (Bayer CropScience Limited, priority 1997, dated 1998)

Experiments:
[1] = test system: recombinant IPMDH (3-isopropylmalate dehydrogenase); experiment: biochemical screen for inhibitors of recombinant IPMDH (spectrometric NADH assay at 340 nm); design: species or system Septoria nodorum; conditions: buffer as control; for % inhibition at 3.3 ppm: first test; for % inhibition at 3.3 ppm, Repeat: repeat test
Description: The recombinant IPMDH was used in a biochemical screen for inhibitors of 3-isopropylmalate dehydrogenase as follows. The assay was originally described by Parsons in 1969 (Purification and properties of β-IPMD, Parsons et al., Journal of Biological Chemistry, 244, (4), 996-1003. It is an spectrometric assay, based on the reduction of coenzyme […] measured at 340 nm. Prior to any assay the rate of production of a given unit of β-NADH was determined and only the rate of the initial linear fraction of the progress curve was taken for the evaluated assay. The reagents for the assay are: the enzyme 3-Isopropyl malate dehydrogenase, KH2PO4, MnCl2, β-NAD (nicotinamide adenine dinucleotide) and the substrate isopropylmalate. […] The mixture is incubated for two minutes at 25°C and the reaction is started by adding 140µl buffer containing the substrate IPM, KH2PO4, MnCl2, β-NAD at pH8. The rate of the increase β-NADH is monitored each minute and five data points are collected. The inhibition of the potential inhibitors are expressed in %-inhibition using buffer as a control. […] Tabulated below are a selection of compounds which gave a significant inhibition of recombinant IPMDH. These compounds were also able to inhibit Septoria nodorum in vitro. […] Approximately 10^5 conidia of Septoria nodorum BS171 were inoculated to Cz medium with the compounds and the effect on fungal growth assessed after six days.

Septoria nodorum (BS171) = experiment: in vitro inhibition of fungal growth in Cz medium; type: cell-based; conditions: Parastagonospora nodorum, 144 h; tested at 10, 25, 50, 75, 100, 150, 200 and 250 ppm in Cz medium; growth assessed after six days
Description: Tabulated below are a selection of compounds which gave a significant inhibition of recombinant IPMDH. These compounds were also able to inhibit Septoria nodorum in vitro. […] Approximately 10^5 conidia of Septoria nodorum BS171 were inoculated to Cz medium with the compounds and the effect on fungal growth assessed after six days.

Phytophthora infestans = type: in vivo; conditions: 500 ppm; late tomato or potato blight; score = % control class
Plasmopara viticola = experiment: in vivo fungicidal activity on test plants, visually estimated infection
Erysiphe cichoracearum = experiment: as above; conditions: 500 ppm
[2] = 125 ppm, vine downy mildew, score = % control class
[3] = cucumber powdery mildew, score = % control class

Structure (SMILES) | % inhibition at 3.3 ppm [1] [%] | % inhibition at 3.3 ppm, Repeat [1] [%] | MIC (Septoria nodorum (BS171)) [µg/mL] | Score (Phytophthora infestans) | Score (Plasmopara viticola; 125 ppm) | Score (Erysiphe cichoracearum) | Score (Plasmopara viticola; [2]) | Score (Erysiphe cichoracearum; [3]) | Score (Plasmopara viticola; 500 ppm, vine downy mildew, score = % control class)
N#Cc1sc2c(=O)c3ccccc3c(=O)c=2sc1C#N [Compound 4, 5,10-dioxo-5,10-dihydronaphtho-[2,3-b][1,4]dithiine-2,3-dicarbonitrile] | 41 | 66 | 0 to 10 | 7 (85-94) | 7 (@125 ppm) (key: 0-20; 1: 20-34; 2: 35-44; 3: 45-54; 55-64; 65-74; 6: 75-84; 7: 85-94; 8: 95-100) | 0 (key: 0-20; 1: 20-34; 2: 35-44; 3: 45-54; 55-64; 65-74; 6: 75-84; 7: 85-94; 8: 95-100) |  |  | 
O=C(Oc1ccccc1)n1c(C(F)(F)F)nc2c(Br)c(Br)c(Br)cc21 [Compound 2, phenyl 4,5,6-tribromo-2-trifluoromethyl-benzimidazole-1-carboxylate] | 33 | 42 | > 250 | 6 (75-84) |  |  | 6 (@125 ppm) (75-84) | 7 (85-94) | 
CC(C)CCC(C)OC(=O)n1c(C(F)(F)F)nc2c(Br)c(Br)c(Br)cc21 (centres unmarked) [Compound 3, 1,4-dimethylpentyl 4,5,6-tribromo-2-trifluoromethyl-benzimidazole-1-carboxylate] | 57 | 20 | 100 to 150 |  |  |  |  | 8 (95-100) | 8 (95-100)
O=C(Oc1ccccc1)n1c(C(F)(F)F)nc2cc(Br)c(Cl)cc21 [Compound 1, phenyl 5-bromo-6-chloro-2-trifluoromethyl-benzimidazole-1-carboxylate] | 33 | 56 | 100 to 150 | 7 (85-94) |  |  | 5 (@125 ppm) (65-74) | 6 (75-84) | 
